Measured values as given in ChEMBL document CHEMBL5715937, “In vitro activity of Bcr-Abl inhibitors AMN107 and BMS-354825 against clinically relevant imatinib-resistant Abl kinase domain mutants” (Cancer Res, 2005).
Activity calls are given as the source filed them. The calls are words filed in the database; no cut-off is given here.

What was measured:
cells [1] = details: Mus musculus, BaF3, 3 h
[2] = Inhibition of BCR-ABL L387M mutant (unknown origin) expressed in mouse BaF3 cells assessed as inhibition of cell growth incubated for 72 hrs by […] CellTiter96 viability analysis; details: for IC50: BaF3, 72 h
[3] = Inhibition of BCR-ABL Y253H mutant (unknown origin) expressed in mouse BaF3 cells assessed as inhibition of cell growth incubated for 72 hrs by […] CellTiter96 viability analysis; details: for IC50: BaF3, 72 h
cells [4] = details: Mus musculus, BaF3, 3 h; remark: listed apart in the source
[5] = Inhibition of BCR-ABL H396R mutant (unknown origin) expressed in mouse BaF3 cells assessed as inhibition of cell growth incubated for 72 hrs by […] CellTiter96 viability analysis; details: for IC50: BaF3, 72 h
cells [6] = details: Mus musculus, BaF3, 3 h; remark: listed apart in the source
[7] = Inhibition of BCR-ABL Y253F mutant (unknown origin) expressed in mouse BaF3 cells assessed as inhibition of cell growth incubated for 72 hrs by […] CellTiter96 viability analysis; details: for IC50: BaF3, 72 h
cells [8] = details: Mus musculus, BaF3, 3 h; remark: listed apart in the source
cells [9] = details: Mus musculus, BaF3, 3 h; remark: listed apart in the source
[10] = Inhibition of BCR-ABL M351T mutant (unknown origin) expressed in mouse BaF3 cells assessed as inhibition of cell growth incubated for 72 hrs by […] CellTiter96 viability analysis; details: for IC50: BaF3, 72 h
[11] = Inhibition of BCR-ABL F317L mutant (unknown origin) expressed in mouse BaF3 cells assessed as inhibition of cell growth incubated for 72 hrs by […] CellTiter96 viability analysis; details: for IC50: BaF3, 72 h
[12] = Inhibition of BCR-ABL F311L mutant (unknown origin) expressed in mouse BaF3 cells assessed as inhibition of cell growth incubated for 72 hrs by […] CellTiter96 viability analysis; details: for IC50: BaF3, 72 h
[13] = Inhibition of BCR-ABL H396P mutant (unknown origin) expressed in mouse BaF3 cells assessed as inhibition of cell growth incubated for 72 hrs by […] CellTiter96 viability analysis; details: for IC50: BaF3, 72 h
cells [14] = details: Mus musculus, BaF3, 3 h; remark: listed apart in the source
cells [15] = details: Mus musculus, BaF3, 3 h; remark: listed apart in the source
cells [16] = details: Mus musculus, BaF3, 72 h
[17] = Inhibition of BCR-ABL Q252H mutant (unknown origin) expressed in mouse BaF3 cells assessed as inhibition of cell growth incubated for 72 hrs by […] CellTiter96 viability analysis; details: for IC50: BaF3, 72 h
cells [18] = details: Mus musculus, BaF3, 3 h; remark: listed apart in the source
cells [19] = details: Mus musculus, BaF3, 3 h; remark: listed apart in the source
[20] = Inhibition of BCR-ABL E255K mutant (unknown origin) expressed in mouse BaF3 cells assessed as inhibition of cell growth incubated for 72 hrs by […] CellTiter96 viability analysis; details: for IC50: BaF3, 72 h
cells [21] = details: Mus musculus, BaF3, 3 h; remark: listed apart in the source
[22] = Cytotoxicity against mouse BaF3 cells assessed as reduction in cell proliferation incubated for 72 hrs by […] CellTiter96 viability analysis; format: toxicity
[23] = Inhibition of BCR-ABL G250E mutant (unknown origin) expressed in mouse BaF3 cells assessed as inhibition of cell growth incubated for 72 hrs by […] CellTiter96 viability analysis; details: for IC50: BaF3, 72 h
[24] = Inhibition of BCR-ABL E255V mutant (unknown origin) expressed in mouse BaF3 cells assessed as inhibition of cell growth incubated for 72 hrs by […] CellTiter96 viability analysis; details: for IC50: BaF3, 72 h
[25] = Inhibition of BCR-ABL M244V mutant (unknown origin) expressed in mouse BaF3 cells assessed as inhibition of cell growth incubated for 72 hrs by […] CellTiter96 viability analysis; details: for IC50: BaF3, 72 h
[26] = Inhibition of BCR-ABL F359V mutant (unknown origin) expressed in mouse BaF3 cells assessed as inhibition of cell growth incubated for 72 hrs by […] CellTiter96 viability analysis; details: for IC50: BaF3, 72 h
cells [27] = details: Mus musculus, BaF3, 3 h; remark: listed apart in the source
cells [28] = details: Mus musculus, BaF3, 3 h; remark: listed apart in the source
[29] = Inhibition of BCR-ABL V379l mutant (unknown origin) expressed in mouse BaF3 cells assessed as inhibition of cell growth incubated for 72 hrs by […] CellTiter96 viability analysis; details: for IC50: BaF3, 72 h
[30] = Inhibition of BCR-ABL L387M mutant (unknown origin) expressed in mouse BaF3 cells assessed as inhibition of tyrosine phosphorylation incubated for 3 hrs by immunoblotting analysis; format: cell-based; details: BaF3, 3 h
[31] = Inhibition of BCR-ABL F311L mutant (unknown origin) expressed in mouse BaF3 cells assessed as inhibition of tyrosine phosphorylation incubated for 3 hrs by immunoblotting analysis; format: cell-based; details: BaF3, 3 h
[32] = Inhibition of BCR-ABL V379l mutant (unknown origin) expressed in mouse BaF3 cells assessed as inhibition of tyrosine phosphorylation incubated for 3 hrs by immunoblotting analysis; format: cell-based; details: BaF3, 3 h
[33] = Inhibition of BCR-ABL H396P mutant (unknown origin) expressed in mouse BaF3 cells assessed as inhibition of tyrosine phosphorylation incubated for 3 hrs by immunoblotting analysis; format: cell-based; details: BaF3, 3 h
BaF3 = assay: Induction of apoptosis in mouse BaF3 cells expressing Bcr-Abl T315I mutant at 300 to 1500 nM incubated for 72 hrs by Annexin V-phycoerythrin and 7-amino-actinomycin D staining based PCA instrument analysis relative to control; format: functional, cell-based; details: dose 300-1500 nM
[34] = Inhibition of BCR-ABL phosphorylation in mouse BaF3 cells incubated for 3 hrs by immunoblotting analysis; format: functional, cell-based
[35] = BaF3, time 72 hrs, condition chronic myelogenous leukemia

Cc1nc(Nc2ncc(C(=O)Nc3c(C)cccc3Cl)s2)cc(N2CCN(CCO)CC2)n1 [DASATINIB ANHYDROUS]
IC50 (cells [1]): < 10 nM
IC50 [2]: 2 nM
IC90 [2, 35]: 4 nM
IC50 [3]: 1.3 nM
IC90 [3, 35]: 3 nM
IC50 (cells [4]): < 10 nM
IC50 [5]: 1.3 nM
IC90 [5, 35]: 2.7 nM
IC50 (cells [6]): < 10 nM
IC50 [7]: 1.4 nM
IC90 [7, 35]: 3 nM
IC50 (cells [8]): 10 nM
IC50 (cells [9]): 10 nM
IC50 [10]: 1.1 nM
IC90 [10, 35]: 3 nM
IC50 [11]: 7.4 nM
IC90 [11, 35]: 15 nM
IC50 [12]: 1.3 nM
IC90 [12, 35]: 2.8 nM
IC50 [13]: 0.6 nM
IC90 [13, 35]: 1.2 nM
IC50 (cells [14]): < 10 nM
IC50 (cells [15]): > 1000 nM
IC50 (cells [16]): > 0.2 µM
IC50 [17]: 3.4 nM
IC90 [17, 35]: 11.2 nM
IC50 (cells [18]): < 0.01 µM
IC50 (cells [19]): < 10 nM
IC50 [20]: 5.6 nM
IC90 [20, 35]: 12.8 nM
IC50 (cells [21]): < 10 nM
IC50 at 72 h [22]: > 0.2 µM
IC50 [23]: 1.8 nM
IC90 [23, 35]: 3 nM
IC50 [24]: 11 nM
IC90 [24, 35]: 27 nM
IC50 [25]: 1.3 nM
IC90 [25, 35]: 1.8 nM
IC50 [26]: 2.2 nM
IC90 [26, 35]: 4.8 nM
IC50 (cells [27]): < 10 nM
IC50 (cells [28]): 10 nM
IC50 [29]: 0.8 nM
IC90 [29, 35]: 1.6 nM

Cc1ccc(NC(=O)c2ccc(CN3CCN(C)CC3)cc2)cc1Nc1nccc(-c2cccnc2)n1 [IMATINIB]
IC50 (cells [1]): > 5000 nM
IC50 [2]: 1000 nM
IC50 [3]: > 6400 nM
IC50 (cells [4]): 1500 nM
IC50 [5]: 1750 nM
IC50 (cells [6]): 1000 nM
IC50 [7]: 3480 nM
IC50 (cells [8]): 5000 nM
IC50 (cells [9]): 3100 nM
IC50 [10]: 880 nM
IC50 [11]: 1050 nM
IC50 [12]: 480 nM
IC50 [13]: 850 nM
IC50 (cells [14]): 500 nM
IC50 (cells [15]): > 5000 nM
IC50 [30]: 2700 nM
IC50 [31]: 600 nM
IC50 (cells [16]): > 6.4 µM
IC50 [32]: 800 nM
IC50 [17]: 1320 nM
IC50 (cells [18]): 4.2 µM
IC50 [33]: 2700 nM
IC50 (cells [19]): 400 nM
IC50 [20]: 5200 nM
IC50 (cells [21]): > 5000 nM
IC50 at 72 h [22]: > 6.4 µM
IC50 [23]: 1350 nM
Activity (BaF3): inactive
IC50 [24]: > 6400 nM
IC50 [25]: 2000 nM
IC50 [26]: 1820 nM
IC50 (cells [27]): 500 nM
IC50 (cells [28]): 1000 nM
IC50 [34]: Not Active
IC50 [29]: 1630 nM
